Read-outs that look alike come from different tables or passages of the source.
Tests used:
N-type calcium channels = biological target: T1, N-type calcium channels (Homo sapiens, UniProt Q00975); test: Antagonistic activity on N-type calcium channels (fluorescence dye method, IMR-32 cells); format: cell-based; details: for inhibition at 10 µM: 10 μM test compound, read-out: N-type inhibition (inhibition rate (%) at 10 μM); for IC50: 60 mM KCl stimulation, 1 μM Nifedipine, Table 20, read-out: N-type inhibition pIC50 (converted)
T1 construct: Human neuroblastoma cells IMR-32 were obtained from ATCC; host or cells: IMR-32 human neuroblastoma cells, differentiated with dibutyl cAMP and 5-bromodeoxyuridine
Protocol: (Test Example) Antagonistic Activity on N-Type Calcium Channels (Fluorescence Dye Method):
Human neuroblastoma cells IMR-32 were obtained from ATCC (American Type Culture Collection). The medium used was a phenol red-free Eagle minimum essential medium containing earle's salts (GIBCO) supplemented with 2 mM of L-glutamine (GIBCO), 1 mM of sodium pyruvate (pH 6.5) (GIBCO), antibiotic/antimicotic mixture (GIBCO) and 10% fetal calf serum (Cell Culture Technologies). Three ml of 1×10^5 cells/ml IMR-32 were spread on a 35 mm diameter glass dish (Iwaki Glass Co., Ltd.) which was treated with poly-L-lysin (SIGMA) and collagen (COLLAGEN VITROGEN 100, Collagen Co.). One day after cultivation, 1 mM (final concentration) of dibutyl cAMP and 2.5 μM (final concentration) of 5-bromodeoxyuridine (SIGMA) were added. After the culture for additional 10 to 14 days, the cells were subjected to the activity determination.
The medium for IMR-32 cells thus prepared was replaced with 1 ml of Phenol Red-free Eagle minimum essential medium (GIBCO) containing 2.5 μM fura-2/AM (Dojin Kagaku, Co.) and earle's salts supplement, and the incubation was conducted at 37° C. for 30 minutes. Then the medium was replaced with a recording medium (20 mM of HEPES-KOH, 115 mM of NaCl, 5.4 mM of KCl, 0.8 mM of MgCl2, 1.8 mM of CaCl2 and 13.8 mM of D-glucose). Antagonistic activity on N-type calcium channels was determined and analyzed using a fluorescence microscope (Nikon Corporation) and an image analysis device ARGUS 50 (Hamamatsu Photonics). In particular, a recording medium (20 mM of HEPES-KOH, 115 mM of NaCl, 5.4 mM of KCl, 0.8 mM of MgCl2, 1.8 mM of CaCl2 and 13.8 mM of D-glucose) containing 1 μM of Nifedipine was given to the cells by reflux by a Y-tube method for 2 minutes. Then a stimulating agent containing 60 mM of potassium chloride was rapidly given by the Y-tube method. The calcium concentration change in the cells was examined in terms of N-type calcium channel activity. Stimulating agents containing 60 mM of potassium chloride and 0.1, 1 or 10 μM of test compound were successively and rapidly given to the same cells by the Y-tube method to determine the change in calcium concentration in the cells on this occasion. Antagonistic activity on N-type calcium channel was thus calculated from the inhibition rates.
The same procedure as that of the above-described tests of the N-type calcium channel antagonistic activity of the compounds obtained in the Examples was repeated except for the following changes: stimulating agents containing 60 mM of potassium chloride and 0.1, 1 or 10 μM of test compound were successively and rapidly given by the Y-tube method. A change in calcium concentration in the cells was determined.

L-type calcium channels = biological target: T2, L-type calcium channels (Rattus norvegicus, UniProt P22002); test: Antagonistic activity on L-type calcium channels (relaxation of KCl-induced contraction of isolated rat thoracic aorta); details: isolated Wistar rat thoracic aorta; for L-type inhibition pIC50: Table 21
T2 construct: The thoracic aorta isolated from a Wistar rat was cut to obtain ring-shaped samples; from tissue; host or cells: isolated Wistar rat thoracic aorta rings, endothelium removed
T2 sequence (P22002 whole entry): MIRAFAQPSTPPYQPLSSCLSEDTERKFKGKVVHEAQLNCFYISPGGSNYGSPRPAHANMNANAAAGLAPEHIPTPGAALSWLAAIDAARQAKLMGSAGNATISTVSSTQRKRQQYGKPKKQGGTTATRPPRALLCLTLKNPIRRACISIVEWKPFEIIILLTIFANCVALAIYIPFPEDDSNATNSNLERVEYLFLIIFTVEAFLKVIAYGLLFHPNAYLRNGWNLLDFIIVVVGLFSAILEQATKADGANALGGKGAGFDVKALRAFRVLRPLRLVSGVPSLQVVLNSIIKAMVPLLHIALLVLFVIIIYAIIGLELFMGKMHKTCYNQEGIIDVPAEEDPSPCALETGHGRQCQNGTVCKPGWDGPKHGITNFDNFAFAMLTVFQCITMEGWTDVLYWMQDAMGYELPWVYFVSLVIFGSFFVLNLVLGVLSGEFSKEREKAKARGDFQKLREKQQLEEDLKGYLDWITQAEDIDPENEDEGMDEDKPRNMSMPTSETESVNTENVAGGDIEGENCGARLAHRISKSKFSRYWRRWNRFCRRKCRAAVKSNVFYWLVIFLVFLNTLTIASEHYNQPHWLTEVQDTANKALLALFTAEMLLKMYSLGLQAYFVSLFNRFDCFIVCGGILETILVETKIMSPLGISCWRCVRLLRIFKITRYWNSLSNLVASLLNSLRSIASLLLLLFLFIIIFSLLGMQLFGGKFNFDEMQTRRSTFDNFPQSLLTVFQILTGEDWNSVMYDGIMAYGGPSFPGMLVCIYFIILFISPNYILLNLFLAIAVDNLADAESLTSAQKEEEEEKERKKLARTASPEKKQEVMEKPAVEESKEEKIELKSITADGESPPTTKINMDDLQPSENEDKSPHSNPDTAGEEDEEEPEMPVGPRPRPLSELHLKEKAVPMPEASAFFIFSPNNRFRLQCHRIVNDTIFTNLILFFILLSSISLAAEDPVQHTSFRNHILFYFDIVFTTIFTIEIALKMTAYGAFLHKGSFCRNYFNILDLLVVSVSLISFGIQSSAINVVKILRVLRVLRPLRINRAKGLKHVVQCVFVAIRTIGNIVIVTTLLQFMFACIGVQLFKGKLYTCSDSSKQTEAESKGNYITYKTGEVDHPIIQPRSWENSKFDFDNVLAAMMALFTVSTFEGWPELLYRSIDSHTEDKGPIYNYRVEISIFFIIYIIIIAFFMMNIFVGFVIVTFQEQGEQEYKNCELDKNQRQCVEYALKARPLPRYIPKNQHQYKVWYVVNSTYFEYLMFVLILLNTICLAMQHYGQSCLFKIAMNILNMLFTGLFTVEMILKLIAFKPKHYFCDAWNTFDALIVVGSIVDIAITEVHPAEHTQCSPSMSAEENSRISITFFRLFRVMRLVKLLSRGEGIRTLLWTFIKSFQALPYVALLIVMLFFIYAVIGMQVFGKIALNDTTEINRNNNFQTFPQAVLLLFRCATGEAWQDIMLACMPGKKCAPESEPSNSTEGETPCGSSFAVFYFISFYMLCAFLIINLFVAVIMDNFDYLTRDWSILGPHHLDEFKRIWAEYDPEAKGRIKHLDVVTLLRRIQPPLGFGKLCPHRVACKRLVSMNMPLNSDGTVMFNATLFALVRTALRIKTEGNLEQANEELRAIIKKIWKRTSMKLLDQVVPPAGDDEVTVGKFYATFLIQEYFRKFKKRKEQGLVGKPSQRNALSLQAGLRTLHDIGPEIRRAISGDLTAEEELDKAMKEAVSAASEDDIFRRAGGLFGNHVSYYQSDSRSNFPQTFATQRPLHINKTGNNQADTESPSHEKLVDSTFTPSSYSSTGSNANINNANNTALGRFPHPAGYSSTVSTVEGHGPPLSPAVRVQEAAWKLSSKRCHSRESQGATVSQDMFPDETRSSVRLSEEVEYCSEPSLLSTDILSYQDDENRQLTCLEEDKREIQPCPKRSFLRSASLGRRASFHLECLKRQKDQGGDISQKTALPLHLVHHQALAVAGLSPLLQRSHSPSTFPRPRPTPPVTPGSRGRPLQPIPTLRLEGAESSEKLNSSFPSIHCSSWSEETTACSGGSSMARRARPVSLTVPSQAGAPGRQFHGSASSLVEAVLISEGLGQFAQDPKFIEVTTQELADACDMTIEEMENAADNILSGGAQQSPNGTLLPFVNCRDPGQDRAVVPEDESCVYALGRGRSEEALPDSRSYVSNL
T2 sequence (P54287 whole entry partner): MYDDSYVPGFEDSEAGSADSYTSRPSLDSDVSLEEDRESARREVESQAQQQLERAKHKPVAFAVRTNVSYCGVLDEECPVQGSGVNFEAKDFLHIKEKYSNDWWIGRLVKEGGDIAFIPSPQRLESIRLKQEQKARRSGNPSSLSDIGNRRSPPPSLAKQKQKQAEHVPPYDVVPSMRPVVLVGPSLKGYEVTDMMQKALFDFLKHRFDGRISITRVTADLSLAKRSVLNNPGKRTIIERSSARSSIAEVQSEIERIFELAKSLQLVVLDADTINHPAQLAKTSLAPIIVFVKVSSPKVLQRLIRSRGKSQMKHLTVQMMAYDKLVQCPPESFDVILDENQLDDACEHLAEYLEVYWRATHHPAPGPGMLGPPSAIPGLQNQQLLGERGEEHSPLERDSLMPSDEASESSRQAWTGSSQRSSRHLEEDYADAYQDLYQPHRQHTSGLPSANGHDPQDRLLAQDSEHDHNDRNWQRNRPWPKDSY
T2 sequence (P54290 25-944 partner limits assumed): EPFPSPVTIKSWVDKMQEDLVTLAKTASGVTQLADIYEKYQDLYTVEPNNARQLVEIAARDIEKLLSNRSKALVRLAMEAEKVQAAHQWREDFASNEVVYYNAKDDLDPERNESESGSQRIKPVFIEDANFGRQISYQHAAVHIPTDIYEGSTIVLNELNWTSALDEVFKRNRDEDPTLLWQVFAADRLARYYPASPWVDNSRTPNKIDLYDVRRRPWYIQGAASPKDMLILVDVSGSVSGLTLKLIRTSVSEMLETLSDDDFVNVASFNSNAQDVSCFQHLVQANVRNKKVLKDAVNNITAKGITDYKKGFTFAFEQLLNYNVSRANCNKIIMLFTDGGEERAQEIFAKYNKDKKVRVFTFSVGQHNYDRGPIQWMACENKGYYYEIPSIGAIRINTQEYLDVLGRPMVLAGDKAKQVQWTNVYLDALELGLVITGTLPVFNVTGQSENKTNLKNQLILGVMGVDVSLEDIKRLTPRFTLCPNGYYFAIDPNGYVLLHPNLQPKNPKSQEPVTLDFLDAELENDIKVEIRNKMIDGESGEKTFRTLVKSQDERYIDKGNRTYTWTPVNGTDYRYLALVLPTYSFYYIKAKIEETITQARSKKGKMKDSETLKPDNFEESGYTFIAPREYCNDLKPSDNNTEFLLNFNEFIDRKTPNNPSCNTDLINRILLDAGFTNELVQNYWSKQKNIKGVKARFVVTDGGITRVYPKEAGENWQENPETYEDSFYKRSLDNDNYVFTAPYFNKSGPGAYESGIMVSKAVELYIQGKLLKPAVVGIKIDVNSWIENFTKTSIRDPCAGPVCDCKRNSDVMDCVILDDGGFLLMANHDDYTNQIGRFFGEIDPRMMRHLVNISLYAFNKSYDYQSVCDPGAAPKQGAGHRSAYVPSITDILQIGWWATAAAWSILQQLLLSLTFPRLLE
T2 sequence (P54290 945-1091 partner limits assumed): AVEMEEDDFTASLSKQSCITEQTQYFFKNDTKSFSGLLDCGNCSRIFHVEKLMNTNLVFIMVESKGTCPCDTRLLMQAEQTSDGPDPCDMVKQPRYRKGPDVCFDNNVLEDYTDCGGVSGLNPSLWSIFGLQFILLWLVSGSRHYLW
Protocol: (Test Example) Antagonistic Activity on L-Type Calcium Channels:
The activity of the dihydropyrimidine derivatives of the present invention to inhibit L-type calcium channels was determined by the following method in which the relaxation reaction on the KCl-induced contraction of isolated rat thoracic aorta was employed.
1) Method of Preparation of Rat Thoracic Aorta:
The thoracic aorta isolated from a Wistar rat was cut to obtain ring-shaped samples having a width of about 3 mm. The endothelial cells of the samples were mechanically removed. The samples were then suspended in a strain gage in Tyrode's solution (158.3 mM of NaCl, 4.0 mM of KCl, 1.05 mM of MgCl2, 0.42 mM of NaH2PO4, 10 mM of NaHCO, 2 mM of CaCl2 and 5 mM of glucose) in which a gaseous mixture of O2 (95%) and CO2 (5%) was introduced. A static tension of 2 g was applied hereto. The tension of the blood vessel was amplified with a transducer and a tension amplifier (EF-601G; Nihon Koden Corporation) and recorded with a multi-pen recorder (Rikadenki Kogyo Co., Ltd.). The experiments were conducted at 37° C.
2) Measurment of Relaxation Response Against KCl-Induced Contraction:
After the tension had been stabilized, the solution in the sample tank was replaced with High K^+ Tyrode's solution (112.3 mM of NaCl, 50 mM of KCl, 1.05 mM of MgCl2, 0.42 mM of NaH2PO4, 10 mM of NaHCO3, 2 mM of CaCl2 and 5 mM of glucose) to conduct the contraction reaction. Thirty minutes after, the solution in the sample tank was replaced with the normal Tyrode's solution. The solution in the sample tank was again replaced with the High K^+ Tyrode's solution and the contraction reaction was observed. After attaining the maximum contraction reaction, the test compound was cumulatively added at intervals of […] to attain concentrations of 10^−9, 10^−8, 10^−7 and 10^−6 M. The inhibitory rate of the test compound on the maximum contraction reaction was employed as the index of the inhibition activity on L-type calcium channels.

SD rats = test: Analgesic action in the formalin test; format: in vivo, rat; details: 3 mg/kg p.o. 3 hours before formalin injection, counted for 60 minutes, average±standard error, control group 116 ± 8
Protocol: (Test Example) Determination of Analgesic Action (Analgesic Action in the Formalin Test) 1) Preparation of Solution of a Test Compound and its Administration
The compound was weighed and ground in a mortar. While grinding the powder, 0.5% tragacanth solution was added thereto so that a suspension was prepared to have a concentration of 0.6 mg/ml.
Three hours before the formalin injection, the compound suspension was orally administered to SD rats at a volume of 5 ml/kg (dosage; 3 mg/kg, p.o.). In the control group, 0.5% tragacanth solution was orally administered to SD rats at a volume of 5 ml/kg 3 hours before formalin injection.
2) Determination of Analgesic Action in the Formalin Test
The SD rats to which the compound was administered were introduced to a capsule. They were settled under halothane (2 to 4% in 3 L/min of oxygen gas flow rate) and 100 μl of 5% formalin solution was injected subcutaneously to their dorsal surface of left legs. After injection, determination was started when the rats came out from the anesthetic state (based on recovery of righting reflex). The number of flinching under the influence of formalin injection was counted for 60 minutes (Reference: J. Neurosci. 14: 4882-4890 (1994)). The results are shown as “average±standard error” in Table 22.

[1] = Table 21, read-out: L-type inhibition pIC50 (converted)
[2] = Table 20, read-out: L-type inhibition pIC50 (converted)

Structure (SMILES) | inhibition at 10 µM (N-type calcium channels) [%] | IC50 (L-type calcium channels; [1]) [µM] | IC50 (N-type calcium channels) [µM] | IC50 (L-type calcium channels; [2]) [µM] | L-type inhibition pIC50 (L-type calcium channels) | Flinching (number) (SD rats)
CSc1nc(C)c(C(=O)NCCCc2ccccc2)c(-c2c(Cl)cccc2Cl)n1 [Example 110, 4-(2,6-dichlorophenyl)-6-methyl-2-(methylthio)-N-(3-phenylpropyl)-5-pyrimidinecarboxamide] | 77 | 2.51 |  |  |  | 
Cc1nc(C)c(C(=O)N2CCNCC2)c(-c2cccc(Cl)c2)c1C(=O)OCCC(c1ccccc1)c1ccccc1 [Example 122, 4-(3-chlorophenyl)-2,6-dimethyl-5-(piperazine-1-carbonyl)nicotinic acid (3,3-diphenylpropyl) ester] | 56 |  | 1.58 | 1 | 6.0 | 61 ± 16
CSc1nc(C)c(C(=O)NCCCc2ccccc2)c(-c2ccc(C)cc2C)n1 [Example 93, 4-(2,4-dimethylphenyl)-6-methyl-2-(methylthio)-N-(3-phenylpropyl)-5-pyrimidinecarboxamide] | 63 | 5.01 |  |  |  | 39 ± 11
CCc1nc(C)c(C(=O)NCCCc2ccccc2)c(-c2cc(Cl)cc(Cl)c2)n1 [Example 103, 2-ethyl-4-(3,5-dichlorophenyl)-6-methyl-N-(3-phenylpropyl)-5-pyrimidinecarboxamide] | 74 | 3.98 |  |  |  | 
CSc1nc(C)c(C(=O)NCCCc2ccccc2)c(-c2cccc(Cl)c2)n1 [Example 16, 4-(3-chlorophenyl)-6-methyl-2-(methylthio)-N-(3-phenylpropyl)-5-pyrimidinecarboxamide] | 58 |  | 2 | 3.16 | 5.5 | 
CSc1nc(C)c(C(=O)NC/C=C/c2ccccc2)c(-c2cccc(Cl)c2)n1 [Example 1, 4-(3-chlorophenyl)-6-methyl-2-(methylthio)-N-(3-phenyl-2-propen-1-yl)-5-pyrimidinecarboxamide] | 52 |  | 1.58 | 2.51 | 5.6 | 
Cc1nc(C)c(C(=O)N2CCN(C)CC2)c(-c2cccc(Cl)c2)c1C(=O)OCCC(c1ccccc1)c1ccccc1 [Example 125, 4-(3-chlorophenyl)-2,6-dimethyl-5-(4-methylpiperazine-1-carbonyl)nicotinic acid (3,3-diphenylpropyl) ester] | 70 | 1.26 |  |  |  | 62 ± 25

From US7288544B2, “Pyrimidine compounds useful as N-type calcium channel antagonists” (Ajinomoto Co., Inc., priority 2000, dated 2007)
